Results: patent publication US8017612B2, “Piperazine compound and use thereof as a HCV polymerase inhibitor” (priority 2006, dated 2011)
Counter-ions that a name gives are not always drawn.

Assays:
[1] = biological target: T1, HCV polymerase (NS5B) type 1b (Hepatitis C virus genotype 1b, UniProt P26663); assay: Assay of enzyme (HCV polymerase) inhibitory activity, type 1b enzyme; type: biochemical, HCV BK strain (type 1b)
T1 construct: a region encoding NS5B (J Virol 1991 March, 65(3), 1105-13, 544 amino acids after deletion of 47 amino acids on the C-terminal); 6xHis (C); made in house; host or cells: Escherichia coli
Summary of the method: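 Polymerase activity was followed as radiolabelled UTP incorporation by E. coli-expressed, His-tagged NS5B of HCV type 1b lacking its last 47 residues. Conditions: 2 μM UTP, 50 μM other NTPs, Mg2+ buffer at pH 7.5, 25 °C for 60 min. Inhibition relative to compound-free reactions gave IC50.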

[2] = biological target: T2, HCV polymerase (NS5B) type 1a (Hepatitis C virus genotype 1a, UniProt P26664); assay: Assay of enzyme (HCV polymerase) inhibitory activity, type 1a enzyme; type: biochemical, HCV type 1a (cloned from the blood of patients)
T2 construct: made in house; host or cells: Escherichia coli (by the 'similar method' of the 1b enzyme)
Summary of the method: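 IC50 values derive from radioactivity of newly synthesized RNA with versus without test compound. The enzyme was C-terminally truncated type 1a NS5B, 1.5 μg/ml, run 60 min at 25° C with 3H-UTP-labelled nucleotides.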

[3] = HCV polymerase inhibitory activity IC50, 1b, type 1b enzyme
[4] = HCV polymerase inhibitory activity IC50, 1a, type 1a enzyme
[5] = HCV polymerase inhibitory activity (IC50), 1b, type 1b enzyme 0.5 μg/ml, 25° C., 60 min
[6] = HCV polymerase inhibitory activity (IC50), 1a, type 1a enzyme 1.5 μg/ml, 25° C., 60 min

Row | SMILES | IC50 [1, 3] [nM] | IC50 [2, 4] [nM] | IC50 [1, 5] [nM] | IC50 [2, 6] [nM]
1 | CN(C)C(=O)c1ncc2sc(N3CCN(S(=O)(=O)c4ccc(OC(F)(F)F)cc4)[C@@H](C(=O)NCc4ccc(OC(F)(F)F)cc4)C3)nc2n1 [Example 1041, 2-[(R)-4-(4-trifluoromethoxy-benzenesulfonyl)-3-(4-trifluoromethoxy-benzylcarbamoyl)-piperazin-1-yl]-thiazolo[4,5-d]pyrimidine-5-carboxylic acid dimethylamide] | < 100 | < 100 |  | 
2 | CCCc1ccc(CNC(=O)[C@H]2CN(c3cc(C)c(C(=O)O)nn3)CCN2S(=O)(=O)c2ccc(OC(F)(F)F)cc2)cc1 [Example 487, 4-methyl-6-[(R)-3-(4-propyl-benzylcarbamoyl)-4-(4-trifluoromethoxy-benzenesulfonyl)-piperazin-1-yl]-pyridazine-3-carboxylic acid] |  |  | < 100 | < 100
3 | Cc1nc(N2CCN(S(=O)(=O)c3ccc(OC(F)(F)F)cc3)[C@@H](C(=O)NCc3ccc(N4CCC4)nc3)C2)sc1C(=O)O [Example 389, 2-[(R)-3-[(6-azetidin-1-yl-pyridin-3-ylmethyl)-carbamoyl]-4-(4-trifluoromethoxy-benzenesulfonyl)-piperazin-1-yl]-4-methyl-thiazole-5-carboxylic acid] |  |  | < 100 | 100 to 1000
4 | CC(C)c1ccc(CNC(=O)[C@H]2CNCCN2S(=O)(=O)c2ccc(C(F)(F)F)cc2)cc1 [Example 1, (R)-1-(4-trifluoromethyl-benzenesulfonyl)-piperazine-2-carboxylic acid 4-isopropyl-benzylamide hydrochloride] |  |  | > 1000 | > 1000
5 | CC(C)c1ccc(S(=O)(=O)N2CCN(c3nc(C(=O)O)cs3)CC2C(=O)NCc2ccc(C(F)(F)F)cc2)cc1 (stereo not shown) [Example 171, 2-[4-(4-isopropyl-benzenesulfonyl)-3-(4-trifluoromethyl-benzylcarbamoyl)-piperazin-1-yl]-thiazole-4-carboxylic acid] |  |  | > 1000 | > 1000
6 | CCCc1ccc(CNC(=O)[C@H]2CN(c3cnc4cncnc4n3)CCN2S(=O)(=O)c2ccc(OC(F)(F)F)cc2)s1 [Example 857, (R)-4-pteridin-7-yl-1-(4-trifluoromethoxy-benzenesulfonyl)-piperazine-2-carboxylic acid (5-propyl-thiophen-2-ylmethyl)-amide] | < 100 | < 100 |  | 
7 | CC(=O)N1CCN(S(=O)(=O)c2ccc(C(C)C)cc2)[C@@H](C(=O)NCc2ccc(C3CC3)cc2)C1 [Example 280, 4-acetyl-1-(4-isopropyl-benzenesulfonyl)-piperazine-2-carboxylic acid 4-cyclopropyl-benzylamide] |  |  | 100 to 1000 | 100 to 1000
8 | CCCc1ccc(CNC(=O)[C@H]2CN(c3ccc(C(=O)O)cc3)CCN2S(=O)(=O)c2ccc(OC(F)(F)F)cc2)cc1 [Example 413, 4-[(R)-3-(4-propyl-benzylcarbamoyl)-4-(4-trifluoromethoxy-benzenesulfonyl)-piperazin-1-yl]-benzoic acid] |  |  | < 100 | 100 to 1000
9 | CCCc1ccc(CNC(=O)[C@H]2CN(c3cnc4c(n3)NC(=O)OC4)CCN2S(=O)(=O)c2ccc(OC(F)(F)F)cc2)cc1 [Example 556, (R)-4-(2-oxo-1,4-dihydro-2H-pyrazino[2,3-d][1,3]oxazin-7-yl)-1-(4-trifluoromethoxy-benzenesulfonyl)-piperazine-2-carboxylic acid 4-propyl-benzylamide] |  |  | < 100 | < 100
10 | COc1ccc(S(=O)(=O)N2CCN(C(C)=O)C[C@@H]2C(=O)NCc2ccc(C(C)C)cc2)cc1C1CCCC1 [Example 241, (R)-4-acetyl-1-(3-cyclopentyl-4-methoxy-benzenesulfonyl)-piperazine-2-carboxylic acid 4-isopropyl-benzylamide] |  |  | 100 to 1000 | 100 to 1000
11 | CCCc1ccc(S(=O)(=O)N2CCN(c3cnc(C(=O)O)cn3)C[C@@H]2C(=O)NCc2ccc(CCC)cc2C)cc1 [Example 441, (R)-3-(2-methyl-4-propyl-benzylcarbamoyl)-4-(4-propyl-benzenesulfonyl)-3,4,5,6-tetrahydro-2H-[1,2′]bipyrazinyl-5′-carboxylic acid] |  |  | < 100 | < 100
12 | CC(C)(C)c1ccc(CNC(=O)[C@H]2CN(c3nc4c(s3)C(=O)NC4=O)CCN2S(=O)(=O)c2ccc(OC(F)(F)F)cc2)cc1 [Example 573, (R)-4-(4,6-dioxo-5,6-dihydro-4H-pyrrolo[3,4-d]thiazol-2-yl)-1-(4-trifluoromethoxy-benzenesulfonyl)-piperazine-2-carboxylic acid 4-tert-butyl-benzylamide] |  |  | < 100 | < 100
13 | CCC(F)(F)c1ccc(CNC(=O)[C@H]2CN(C(=O)C(C)(C)C)CCN2S(=O)(=O)c2ccc(OC(F)(F)F)cc2)cc1 [Example 611, (R)-4-(2,2-dimethyl-propionyl)-1-(4-trifluoromethoxy-benzenesulfonyl)-piperazine-2-carboxylic acid 4-(1,1-difluoro-propyl)-benzylamide] |  |  | > 1000 | > 1000
14 | CC(C)c1ccc(CNC(=O)[C@H]2CN(C(=O)Nc3ccncc3)CCN2S(=O)(=O)c2ccc(C(F)(F)F)cc2)cc1 [Example 347, (R)-4-(4-trifluoromethyl-benzenesulfonyl)-piperazine-1,3-dicarboxylic acid 3-(4-isopropyl-benzylamide) 1-pyridin-4-ylamide] |  |  | 100 to 1000 | 100 to 1000
15 | CCC(F)(F)c1ccc(CNC(=O)[C@H]2CN(c3ccn4ncnc4n3)CCN2S(=O)(=O)c2ccc(OC(F)(F)F)cc2)cc1 [Example 626, (R)-4-[1,2,4]triazolo[1,5-a]pyrimidin-5-yl-1-(4-trifluoromethoxy-benzenesulfonyl)-piperazine-2-carboxylic acid 4-(1,1-difluoro-propyl)-benzylamide] |  |  | < 100 | < 100
16 | CCCc1ccc(CNC(=O)[C@H]2CN(C(=O)Cn3ncnn3)CCN2S(=O)(=O)c2ccc(OC(F)(F)F)cc2)cc1 [Example 460, (R)-4-(2-tetrazol-2-yl-acetyl)-1-(4-trifluoromethoxy-benzenesulfonyl)-piperazine-2-carboxylic acid 4-propyl-benzylamide] |  |  | < 100 | < 100
17 | CCC(F)(F)c1ccc(CNC(=O)[C@H]2CN(C(=O)Cn3nnc(C)n3)CCN2S(=O)(=O)c2ccc(OC(F)(F)F)cc2)cc1 [Example 468, (R)-4-[2-(5-methyl-tetrazol-2-yl)-acetyl]-1-(4-trifluoromethoxy-benzenesulfonyl)-piperazine-2-carboxylic acid 4-(1,1-difluoro-propyl)-benzylamide] |  |  | < 100 | < 100
18 | CCC(F)(F)c1ccc(CNC(=O)[C@H]2CN(C(=O)Nc3csc(C)n3)CCN2S(=O)(=O)c2ccc(OC(F)(F)F)cc2)cc1 [Example 567, (R)-4-(4-trifluoromethoxy-benzenesulfonyl)-piperazine-1,3-dicarboxylic acid 3-[4-(1,1-difluoro-propyl)-benzylamide] 1-[(2-methyl-thiazol-4-yl)-amide]] |  |  | < 100 | 100 to 1000
19 | CCCc1ccc(CNC(=O)[C@H]2CN(c3nc4nc(Cl)ncc4s3)CCN2S(=O)(=O)c2ccc(OC(F)(F)F)cc2)cc1 [Example 913, (R)-4-(5-chloro-thiazolo[4,5-d]pyrimidin-2-yl)-1-(4-trifluoromethoxy-benzenesulfonyl)-piperazine-2-carboxylic acid 4-propyl-benzylamide] | < 100 | < 100 |  | 
20 | CC(C)(C)c1ccc(CNC(=O)[C@H]2CN(c3nc4c(s3)CN(S(C)(=O)=O)CC4)CCN2S(=O)(=O)c2ccc(OC(F)(F)F)cc2)cc1 [Example 600, (R)-4-(5-methanesulfonyl-4,5,6,7-tetrahydro-thiazolo[5,4-c]pyridin-2-yl)-1-(4-trifluoromethoxy-benzenesulfonyl)-piperazine-2-carboxylic acid 4-tert-butyl-benzylamide] |  |  | < 100 | < 100
21 | CC(C)c1ccc(S(=O)(=O)N2CCN(S(C)(=O)=O)CC2C(=O)NCc2ccc(C(F)(F)F)cc2)cc1 (stereo not shown) [Example 17, 1-(4-isopropyl-benzenesulfonyl)-4-methanesulfonyl-piperazine-2-carboxylic acid 4-trifluoromethyl-benzylamide] |  |  | > 1000 | > 1000
22 | CCCc1ccc(CNC(=O)[C@H]2CN(c3nc(C)c(C(=O)O)s3)CCN2S(=O)(=O)c2ccc(OC(F)(F)F)cc2F)cc1 [Example 14, 2-[(R)-4-(2-fluoro-4-trifluoromethoxy-benzenesulfonyl)-3-(4-propyl-benzylcarbamoyl)-piperazin-1-yl]-4-methyl-thiazole-5-carboxylic acid] |  |  | < 100 | < 100
23 | Cc1nc(N2CCN(S(=O)(=O)c3ccc(OC(F)(F)F)cc3)[C@@H](C(=O)NCc3ccc(C(C)C)nc3)C2)sc1C(=O)O [Example 13, 2-[(R)-3-[(6-isopropyl-pyridin-3-ylmethyl)-carbamoyl]-4-(4-trifluoromethoxy-benzenesulfonyl)-piperazin-1-yl]-4-methyl-thiazole-5-carboxylic acid] |  |  | < 100 | < 100
